Square brackets hold non-standard residues; d marks the D form. Ends that are not written are not given here. Peptide text beside a SMILES is read from it. * marks the point of attachment. Cbz = O=C(OCc1ccccc1)*
Columns and labels:
[1] = tested on: Mouse N2a neuroblastoma cells
Protocol: Cell viability measurement by MTT assays. […] Each bar was generated by a triplicate experiment; the study was repeated 3 times. The statistics were performed with one way ANOVA corrected with Fisher's LSD test. ***: p<0.001; ****p<0.0001; ns, not significant.
Cell viability assay. The viability of mouse N2a cells incubated with the indicated peptide(s) was measured using the MTT assay.
Mouse N2a neuroblastoma cells (ATCC) were cultured in Dulbecco's modified Eagle's medium (DMEM) (HyClone, USA) supplemented with 10% fetal bovine serum (FBS; HyClone, USA) in 5% CO2 at 37° C. For the cell viability assay, the cells were harvested, suspended at a density of 350,000 cells/mL in DMEM, and 100 μL of each sample was plated in each well of a 96-well CellBIND polystyrene microplate (Corning, USA). […] Cell viability was determined using the MTT (3-[4,5-dimethylthiazol-2-yl]-2,5-diphenyltetrazolium bromide) toxicity assay. […] Ten microliters of 5 mg/mL of MTT in PBS was added to each well, and then, after incubation for 4 h, the medium was removed and the MTT crystals were dissolved in 100 μL of 90% isopropanol, 0.5% SDS, and 40 mM HCl, and their absorption at 570 nm was measured. Cell viability was calculated by dividing the absorbance of the wells containing peptide samples by that of the wells without any added peptide. […]

[2] = Solubility of therapeutic peptides; type: physicochemical
Protocol: (§1) In this study, the rational design was tested for HD. Several bipartite therapeutic peptides containing 8 consecutive arginines (8R) attached to a stretch of consecutive glutamines (polyQ) were synthesized and their biological activity of decreasing the aggregation propensity of the mHtt protein was investigated. The length of the polyQ of these bipartite peptides was 5 (8R5Q), 10 (8R10Q), 15 (8R15Q) or 20 (8R20Q) (Table 2).

[3] = tested on: Neuro2a cells expressing 109QmHtt; test: Retinoic acid-induced neurite outgrowth; type: cell-based, mouse; details: 109QmHtt cells; vs water or scrambled control
Protocol: FIG. 5. Therapeutic effect of 8R10Q and 8R15Q in 109QmHtt-expressing cells. Panel A: Cell viability assay by MTT in Neuro2a cells expressing 25QHtt (left) or 109QmHtt (right) treated with H2O2 at 50 μM and the indicated peptide. Panel B: Cell growth curve of Neuro2a cells expressing 25QHtt or 109QmHtt treated with indicated peptide. The cells in right subpanel were further treated with H2O2 at 12.5 μM 16 hours after transfection. 109QmHtt cells growth was slower than that of the 25QHtt cells. 8R10Q treatment rescued the slow growth of Neuro2a cells by 109QmHtt with or without H2O2. Panel C: Micrographs of the phase contrast and fluorescent images of retinoic acid-differentiated Neu2a cells expressing GFP-25QHtt or GFP-109QmHtt (GFP) treated with the indicated peptide. Note the neurites of the differentiated cells. Panel D: Quantitation of the percentage of differentiated cells with neurites. Fewer 109QmHtt-expressing cells had neurites vs. 25QHtt-expressing cells. […] The experiments were conducted in triplicate and repeated twice. Statistical analysis was performed with one way ANOVA, *p<0.05; **p<0.01; ***p<0.001, ns: not significant.
Retinoic acid (RA) induced the differentiation of Neuro2a cells with neurite outgrowth. 109QmHtt decreased the number of cells bearing RA-induced neurites relative to 25QHtt (FIG. 5, panels C and D).

109QmHtt aggregates = test: TIRF microscopy of mHtt aggregates in Neuro2a cells; type: cell-based; details: Neuro2a cells expressing 109QmHtt
Protocol: FIG. 3. Diagrams showing the co-localization of tested bipartite peptides with the 109QmHtt aggregates. Panel A: Structure of TAMRA-labeled 8R10Q used in this study. Panel B: Epifluorescence micrographs of Neuro2a cells expressing 109QmHtt treated with TAMRA-8R10Q (8R10Q) at various time points. Note the co-localization of 8R10Q and 109QmHttGFP aggregates (GFP) from 8-24 hours (arrows). Scale bar: 10 μm. Panel C: TIRF micrographs of the Neuro2a expressing 109QmHtt treated with water or peptides as indicated at various time points. Note the decrease in aggregate size in 8R10Q and 8R15Q-treated cells. Panel D: Quantitation of the size of individual aggregates in Neuro2a at 8 hours (left) and 24 hours (right) after peptide treatment. […] Panel E: Quantitation of the number of aggregates in 20 Neuro2a cells at 12 hours (left) and 24 hours (right) after peptide treatment. Both the 8R10Q and 8R15Q increased the number of aggregates. Statistics performed with one way ANOVA. **p<0.01; ***p<0.001.
To probe into the details of the effect of peptide on the mHtt aggregates, the parameters of the mHtt aggregates were visualized and measured using the Total Internal Reflection Fluorescence (TIRF) microscopy. […] The number of aggregates in 20 cells was also calculated. 8R10Q and 8R15Q increased the number of the aggregates by 4-5 fold (FIG. 3, panel E).

109QmHtt [4] = test: Western blot of RIPA-soluble and -insoluble fractions of Neuro2a lysates; type: cell-based; details: all groups
Protocol: (§2) FIG. 4. Testing the ability of therapeutic peptides to decrease mHtt aggregation in Neuro2a cells overexpressing mHtt. Panel A: Filter trap assays and corresponding quantitation of cells (panel B) treated as indicated at 8 hours (T1), 24 hours (T2), or both (T1+2) after transfection with the 109QmHtt construct. […] Panel C: Western blots and quantitation (panel D) of RIPA-soluble (sol) and -insoluble (ins) fractions of Neuro2a cells overexpressing 25QHtt or 109QmHtt and treated as indicated. […] Panel E: Western blot of the 109QmHtt in cells treated as indicated. Note that MG132 blocked the effect of 8R10Q peptide with respect to decreasing insoluble 109QmHtt. Panel F: Quantitation of ratio of 109QmHtt in cells treated MG132 (+) over DMSO (−) in relationship to peptides. Statistical analysis conducted with one way ANOVA, *<0.05, **<0.01, ***<0.001, ns: not significant.
For further characterization, Neuro2a lysates were separated into the RIPA-soluble (sol) and insoluble (ins) fractions ([…]). 8R10Q peptide decreased the level of mHtt in both the soluble and insoluble fractions as compared with water, 8R, or the scrambled (s8R10Q) control (FIG. 4, panel D). […]

[5] = Stability of therapeutic peptides determined by HPLC; type: physicochemical; details: day 0 to day 28
Protocol: FIG. 2. Stability of the therapeutic peptides determined by HPLC. A: diagrams showing the retention time of the tested peptides from day 0 to day 28. B: charts showing the amount of the tested peptides at day 0 and day 28.
as §1

109QmHtt [6] = test: Filter trap assay of aggregated 109QmHtt in Neuro2a cells; type: cell-based
Protocol: as §2
Whether the peptides could modulate the aggregation propensity of mHtt was next investigated.

## CC[C@H](C)[C@H](NC(=O)[C@H](C)NC(=O)CNC(=O)[C@H](CCCCN)NC(=O)[C@H](CC(N)=O)NC(=O)[C@H](CO)NC(=O)CNC(=O)[C@@H](CCCNC(=N)N)NC(=O)[C@@H](CCCNC(=N)N)NC(=O)[C@@H](CCCNC(=N)N)NC(=O)[C@@H](CCCNC(=N)N)NC(=O)[C@@H](CCCNC(=N)N)NC(=O)[C@@H](CCCNC(=N)N)NC(=O)[C@@H](CCCNC(=N)N)NC(=O)[C@H](N)CCCNC(=N)N)C(=O)N[C@H](C(=O)NCC(=O)N[C@@H](CC(C)C)C(=O)N[C@@H](CCSC)C(N)=O)[C@@H](C)CC [^DR8-Aβ(25-35)] (H-[dR][dR][dR][dR][dR][dR][dR][dR]GSNKGAIIGLM-NH2; N-terminus assumed)
[1]
  viability of Neuro2a cells treated with peptide alone: no detectable toxicity

## TAMRA-NH-RQQRRQQDQRQWQRQRQQRR-CONH2 ({TAMRA}-RQQRRQQDQRQWQRQRQQRR-NH2) [TAMRA-s8R10Q, reference compound]
[2]
  Solubility (DMEM/10% FBS): Soluble

## H-RRRRRRRRWD-NH2 [Peptide 8R, NH2-(R)8-W-D-CONH2, reference compound]
[3]
  RA-induced neurite outgrowth: rescued the cells from this toxicity to some extent
[2]
  Solubility (DMEM/10% FBS): Soluble
109QmHtt aggregates
  average size of the aggregates: 3.3 μm^2

## H-RQQRRQQDQRQWQRQRQQRR-NH2 [s8R10Q, reference compound]
[2]
  Solubility (DMEM/10% FBS): Soluble
109QmHtt aggregates
  average size of the aggregates: 1.7 μm^2

## CC(C)C[C@@H](C=O)NC(=O)[C@H](CC(C)C)NC(=O)[C@H](CC(C)C)NC(=O)OCc1ccccc1 [MG132, reference compound] (Cbz-Leu-Leu-Leu-aldehyde)
109QmHtt [4]
  level of mHtt after MG132 treatment: increased

## RRRRRRRRGSNKGAIIGLM-NH2 [R8-Aβ(25-35)]
[1]
  viability of Neuro2a cells treated with peptide alone: no detectable toxicity

## H-RRRRRRRRWDQQQQQ-NH2 [Peptide 8R5Q, NH2-(R)8-W-D-(Q)5-CONH2]
[2]
  Solubility (DMEM/10% FBS): Soluble
  solubility in water or culture medium: highly soluble

## H-RRRRRRRRWDQQQQQQQQQQQQQQQQQQQQ-NH2 [Peptide 8R20Q, NH2-(R)8-W-D-(Q)20-CONH2]
[5]
  change in retention time and amount during HPLC analysis: time-dependent decrease in the retention time and amount
[2]
  Solubility (DMEM/10% FBS): aggregated
  solubility in water or culture medium: insoluble

## TAMRA-NH-(R)8-W-D-CONH2 [TAMRA-8RWD, reference compound]
[2]
  Solubility (DMEM/10% FBS): Soluble

## H-RRRRRRRRWDQQQQQQQQQQQQQQQ-NH2 [Peptide 8R15Q, NH2-(R)8-W-D-(Q)15-CONH2]
[5]
  change in retention time and amount during HPLC analysis: time-dependent decrease in the retention time and amount
[2]
  Solubility (DMEM/10% FBS): aggregated
  solubility in water or culture medium: partially soluble
109QmHtt aggregates
  average size of the aggregates: 0.2 μm^2
109QmHtt [6]; 20 μM peptide added at 8 hours (T1) or 8 plus 24 hours (T1+T2) after transfection, vs water or 8R
  aggregated 109QmHtt by filter trap assay: significantly reduced
109QmHtt [6]; peptide added at 24 hours alone
  aggregated 109QmHtt by filter trap assay: no obvious effects
